Literature values in patent publication US20210255187A1, “METHOD FOR PREDICTING THE EFFECTIVENESS OF TREATMENTS FOR CANCER PATIENTS” (University College Dublin, National University of Ireland, …, priority 2018, published 2021).

System: breast cancer cells

With `COc1cccc2c1C(=O)c1c(O)c3c(c(O)c1C2=O)C[C@@](O)(C(=O)CO)C[C@@H]3O[C@H]1C[C@H](N)[C@H](O)[C@H](C)O1` [doxorubicin] as the compound, how does the “AKT phosphorylation in response to doxorubicin” value read?
Its value is “not changing”.
